Experimental findings from patent US20080076729A1, “Interferon-beta gene therapy using an improved, regulated expression system” (Schering Aktiengesellachaft, priority 2005, published 2008) are described below.

The test system of series [1] is JE. Put plainly: JE chemokine level in plasma of treated mice by ELISA. The series is classed as in vivo. The note with it: bolus protein, each of three doses. As for the experimental part:
FIG. 7 illustrates induction levels of IP-10 (A) and JE (B) following i.v. or i.m. injection of murine IFN-β protein. C57BL/6 mice were administered 15, 150, or 500 ng of purified recombinant mIFN-β protein (specific activity=2.0×10^8 units/mg) by either i.v. (via tail vein) or i.m. injection (n=3 mice per group). The mice were bled at 2, 4, 6, 12, 24, and 48 hours post-injection, and the plasma levels of IP-10 and JE were measured by ELISA (R&D Systems).
FIG. 19 illustrates IP-10 and JE induction with a pBRES mIFN-β regulated expression system of the present invention.
• A. Development of mIFN-β Biomarkers: For higher sensitivity in detection of murine IFN-β (mIFN-β) activity in vivo, biomarkers for mIFN-β activity were identified in mice after injection of mIFN-β protein or mIFN-β encoded gene therapy vectors. […] In the present study, the expression of the MxA mouse homologue, Mx1, (see e.g., Hug, H et al. Mol Cell Biol 8: 3065-79; Pavlovic, J (1993) Ciba Found Symp 176: 233-43) isolated from murine peripheral blood monocytes (PBMC's) was used to detect the presence of biologically active mIFN-β. • A quantitative PCR/RT-PCR assay was developed to quantitate the levels of Mx1 mRNA in murine PBMC's. […] The samples were analyzed with an Mx1-specific probe/primer combination. […] The highest Mx1 expression levels were measured 2 hours after injection. […]

Series [2] concerns luciferase reporter gene. Put plainly: Luciferase reporter gene assay for activity of purified mIFN-β protein. The series is classed as cell-based. How it is done:
Specifically, the gene encoding mIFN-β was cloned into a pCEP4 expression vector (Invitrogen). The expression plasmid encoding mIFN-β was transiently transfected into 293E cells (Edge Biosystems) using X-tremeGene Ro-1539 Transfection Reagent (Roche). Murine IFN-β protein was purified from the medium by ion-exchange chromatography and by hydrophobic-interaction chromatography. The product was sialyzed and concentrated against dilution buffer (50 mM sodium acetate, pH 5.5, 150 mM sodium chloride, and 5% polypropylene glycol) and sterile filtered. Aliquots of the purified protein were stored at −80° C. The activity of the purified protein was assessed using a luciferase reporter gene assay (Hardy et al. (2001) Blood 97:473-482), using a commercial mIFN-β reference standard from Access Biomedical (San Diego, Calif.). The specific activity of the purified protein was 2×10^8 units/mg.
The positive control used for this study was Prednisolone, 2.5 mg/kg, (Sigma, St. Louis) administered by IP injection twice daily, beginning on day 1, until the end of the study. For mIFN-β protein delivery, the mice were given SC injections of purified recombinant mIFN-β protein every other day, starting on day 1 of the study (100,000 or 300,000 IU per animal per injection in 100 ul vehicle buffer). […]
(A reporter such as luciferase makes a cellular process visible.)

Series [3] relates to SJL mice with acute EAE. Put plainly: Mouse acute EAE model, daily clinical scoring. The series is classed as in vivo.

Where two headings read alike, the source gives them in different places. Bounds are passed on as bounds.

On to “mIFN-β: purified recombinant murine interferon-beta protein”, for which the “time by which plasma JE dropped to background” value in series [1] was at most 24 h. For the same substance, the “specific activity of the purified protein” value is reported as 2×10^8 international units (IU) per mg in series [2] and 2×10^8 units/mg in series [2] (commercial mIFN-β reference standard). Further, the “clinical scores of EAE compared to vehicle treated mice” value in series [3] (30,000 units s.c. every other day, first study) is “did not reach statistical significance”. In series [3] (100,000 Units s.c. every other day, second study (FIG. 12)), the “clinical scores of EAE compared to vehicle control” value is on record as “significantly decreased clinical scores”. Moreover, the “severity of the disease (clinical scores) compared to vehicle treated animals” value in series [3] (100,000 or 300,000 units SC every other day, 25 day study (FIG. 39A)) is recorded as “significantly reduced the severity of the disease”. For the same substance, in series [3] (100,000 units s.c. every other day, first study (FIG. 11)), the “clinical scores of EAE compared with vehicle treated mice” value is reported as “significantly decreased clinical scores”.
